{"source": "paper PMC8007111", "about": "“Novel Potent Muscarinic Receptor Antagonists: Investigation on the Nature of Lipophilic Substituents in the 5- and/or 6-Positions of the 1,4-Dioxane Nucleus” (Journal of Medicinal Chemistry, 2020)", "key": {"[1]": {"target": "T1, hM1 mAChR (Homo sapiens, UniProt P11229)", "T1 construct": "expressed in transfected cells; host or cells: CHO-K1 (membrane preparation)", "T1 sequence (P11229 1-460)": "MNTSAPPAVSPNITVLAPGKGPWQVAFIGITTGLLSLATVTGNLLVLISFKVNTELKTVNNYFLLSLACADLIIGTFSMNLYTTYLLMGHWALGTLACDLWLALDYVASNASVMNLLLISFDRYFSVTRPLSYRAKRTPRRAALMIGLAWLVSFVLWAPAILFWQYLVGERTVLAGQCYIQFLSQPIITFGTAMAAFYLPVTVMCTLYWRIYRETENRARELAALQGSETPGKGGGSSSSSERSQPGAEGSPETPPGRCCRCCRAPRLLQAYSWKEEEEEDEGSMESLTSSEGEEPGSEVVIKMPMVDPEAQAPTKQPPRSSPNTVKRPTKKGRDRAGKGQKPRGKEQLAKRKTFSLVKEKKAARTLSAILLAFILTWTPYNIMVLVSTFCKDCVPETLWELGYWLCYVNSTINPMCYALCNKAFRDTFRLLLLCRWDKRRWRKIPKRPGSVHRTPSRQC", "assay": "[3H]NMS inhibition radioligand binding, hM1 in CHO-K1 cell membranes", "conditions": "[3H]NMS, CHO-K1 cell membranes; mean ± S.E.M."}, "[2]": {"target": "T2, hM2 mAChR (Homo sapiens, UniProt P08172)", "T2 construct": "expressed in transfected cells; host or cells: CHO-K1 (membrane preparation)", "T2 sequence (P08172 1-466)": "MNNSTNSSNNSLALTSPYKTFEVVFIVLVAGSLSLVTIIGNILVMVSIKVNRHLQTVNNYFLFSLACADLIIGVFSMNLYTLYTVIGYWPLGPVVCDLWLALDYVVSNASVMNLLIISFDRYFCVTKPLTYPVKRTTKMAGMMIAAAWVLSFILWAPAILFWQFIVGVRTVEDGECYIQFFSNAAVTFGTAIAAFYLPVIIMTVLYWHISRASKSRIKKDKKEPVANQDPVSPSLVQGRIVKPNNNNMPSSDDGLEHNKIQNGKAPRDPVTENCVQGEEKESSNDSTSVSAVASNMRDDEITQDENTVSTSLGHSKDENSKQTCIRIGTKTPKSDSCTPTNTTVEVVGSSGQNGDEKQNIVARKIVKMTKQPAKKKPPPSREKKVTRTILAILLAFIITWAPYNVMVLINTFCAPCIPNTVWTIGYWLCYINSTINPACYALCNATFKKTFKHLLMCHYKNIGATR", "assay": "[3H]NMS inhibition radioligand binding, hM2 in CHO-K1 cell membranes", "conditions": "[3H]NMS, CHO-K1 cell membranes; mean ± S.E.M."}, "[3]": {"target": "T3, hM5 mAChR (Homo sapiens, UniProt P08912)", "T3 construct": "expressed in transfected cells; host or cells: CHO-K1 (membrane preparation)", "T3 sequence (P08912 1-532)": "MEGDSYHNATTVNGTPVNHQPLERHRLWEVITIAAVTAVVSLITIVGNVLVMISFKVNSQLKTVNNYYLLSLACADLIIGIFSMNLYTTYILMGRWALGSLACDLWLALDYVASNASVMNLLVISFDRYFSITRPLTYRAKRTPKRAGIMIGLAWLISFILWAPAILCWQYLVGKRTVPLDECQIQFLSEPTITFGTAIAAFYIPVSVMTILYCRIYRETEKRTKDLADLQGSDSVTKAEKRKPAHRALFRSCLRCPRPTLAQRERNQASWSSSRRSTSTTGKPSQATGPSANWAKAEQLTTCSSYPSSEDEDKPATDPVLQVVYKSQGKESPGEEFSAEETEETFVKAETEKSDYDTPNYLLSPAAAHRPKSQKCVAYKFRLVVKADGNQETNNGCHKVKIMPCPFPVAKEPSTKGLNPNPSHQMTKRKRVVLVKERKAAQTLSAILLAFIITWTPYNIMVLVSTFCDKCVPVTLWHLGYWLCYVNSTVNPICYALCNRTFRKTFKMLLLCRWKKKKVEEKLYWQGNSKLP", "assay": "[3H]NMS inhibition radioligand binding, hM5 in CHO-K1 cell membranes", "conditions": "[3H]NMS, CHO-K1 cell membranes; mean ± S.E.M."}, "[4]": {"target": "T4, hM3 mAChR (Homo sapiens, UniProt P20309)", "T4 construct": "expressed in transfected cells; host or cells: CHO-K1 (membrane preparation)", "T4 sequence (P20309 whole entry)": "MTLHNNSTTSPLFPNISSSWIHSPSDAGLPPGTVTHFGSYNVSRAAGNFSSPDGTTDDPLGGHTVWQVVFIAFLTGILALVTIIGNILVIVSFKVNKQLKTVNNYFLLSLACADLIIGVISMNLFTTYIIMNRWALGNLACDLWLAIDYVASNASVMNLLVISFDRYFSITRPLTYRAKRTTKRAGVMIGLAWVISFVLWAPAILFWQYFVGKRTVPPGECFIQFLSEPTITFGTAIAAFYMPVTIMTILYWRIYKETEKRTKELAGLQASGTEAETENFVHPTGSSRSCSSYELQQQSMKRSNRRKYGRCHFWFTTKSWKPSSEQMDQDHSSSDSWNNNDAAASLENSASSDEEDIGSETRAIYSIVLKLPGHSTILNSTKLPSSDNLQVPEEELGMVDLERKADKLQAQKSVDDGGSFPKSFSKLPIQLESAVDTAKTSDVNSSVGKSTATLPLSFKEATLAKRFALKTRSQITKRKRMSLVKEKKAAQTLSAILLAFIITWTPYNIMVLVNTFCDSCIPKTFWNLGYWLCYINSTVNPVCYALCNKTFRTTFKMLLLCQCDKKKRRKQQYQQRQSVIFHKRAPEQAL", "assay": "[3H]NMS inhibition radioligand binding, hM3 in CHO-K1 cell membranes"}}}
{"smiles": "C[N+](C)(C)C[C@@H]1COC[C@](c2ccccc2)(C2CCCCC2)O1.[I-]", "note": "(relative stereo) [3b, 1-((2R*,6R*)-6-Cyclohexyl-6-phenyl-1,4-dioxan-2-yl)-N,N,N-trimethylmethanaminium Iodide]", "values": [{"measurement": "pKi hM1", "setting": "[1]", "result": "9.28 ± 0.19"}, {"measurement": "pKi hM2", "setting": "[2]", "result": "7.91 ± 0.13"}, {"measurement": "pKi hM5", "setting": "[3]", "result": "8.41 ± 0.1"}, {"measurement": "pKi hM3", "setting": "[4]; [3H]NMS, CHO-K1 cell membranes, mean ± S.E.M.", "result": "9.07 ± 0.03"}, {"measurement": "M3/M2 selectivity ratio", "setting": "[4]; from binding affinities at hM3 and hM2", "result": 14.5}]}
